# Results reported in patent US10208033B2, “β-carboline, dihydro-β-carboline and tetrahydro-β-carboline alkaloid derivatives and preparation methods same and use in aspects of preventing and treating plant viruses, fungicides and insecticides” (NANKAI UNIVERSITY, priority 2013, dated 2019).
# Tests used:
# cucumber fusarium wilt = test: Fungicidal (bactericidal) activity in vitro, PDA colony diameter; assay type: cell-based; conditions: 50 mg/kg
# armyworms = assay type: in vivo; conditions: concentration 600 mg/kg
# [1] = tested on: tobacco mosaic virus (TMV); test: Anti-TMV activity, overall statements on Table 1; assay type: in vivo, tobacco mosaic virus (host Nicotiana tabacum L.cv.Xanthi NN); conditions: 100 μg/mL versus ningnanmycin at 100 μg/mL
# [2] = tested on: tobacco mosaic virus (TMV); test: Anti-TMV in vivo protective effect; parameters: species or system tobacco mosaic virus (host Nicotiana tabacum L.cv.Xanthi NN); conditions: for inhibition at 100 µg/mL / inhibition at 500 µg/mL: Tobacco mosaic virus, read-out: Relative inhibition rate (%) In vivo protection
# cotton bollworms = test: whole plant or invertebrate; conditions: for mortality at 600 mg/kg: Helicoverpa armigera, in Gossypium hirsutum, read-out: Cotton bollworm Mortality (%); for Cotton bollworm Mortality (%): concentration 600 mg/kg
# Description: Experimental method of cotton bollworms: feed and drug mixing method: measure 3 mL of prepared solution and add it to about 27 g of newly prepared feed, thereby obtaining needed concentration through dilution by 10 times.
# Fusarium fujikuroi = test: Fungicidal (bactericidal) activity in vitro, PDA colony diameter; assay type: cell-based; conditions: 50 mg/kg
# Rhizoctonia cereali = test: as above; assay type: cell-based; conditions: 50 mg/kg
# corn borers [3] = test: whole plant or invertebrate; conditions: read-out: Corn borer Mortality (%)
# mosquito larvae = test: whole plant or invertebrate; conditions: 24 h; for mortality at 10 mg/kg: Culex pipiens, read-out: Mosquito larvae Mortality (%); for Mosquito larvae Mortality (%): concentration 10 mg/kg
# In short: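 Early fourth-instar Culex pipiens pallens larvae from an indoor colony, 10 per beaker, exposed to test compound at 5 ppm in water, diluted from a 1000 ppm acetone mother solution. Blank: water containing 0.5 mL test solvent.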
# Macrophoma kawatsukai = test: Fungicidal (bactericidal) activity in vitro, PDA colony diameter; assay type: cell-based; conditions: 50 mg/kg
# [4] = tested on: tobacco mosaic virus (TMV); test: Anti-TMV in vivo inactivation; parameters: species or system tobacco mosaic virus (host Nicotiana tabacum L.cv.Xanthi NN); conditions: for inhibition at 100 µg/mL / inhibition at 500 µg/mL: Tobacco mosaic virus, read-out: Relative inhibition rate (%) In vivo inactivation
# [5] = tested on: tobacco mosaic virus (TMV); test: Anti-TMV in vitro effect (half-leaf soaking); assay type: cell-based, tobacco mosaic virus (host Nicotiana tabacum L.cv.Xanthi NN); conditions: for inhibition at 100 µg/mL / inhibition at 500 µg/mL: Tobacco mosaic virus, read-out: Relative inhibition rate (%) In vitro activity
# Phytophthora capsici = test: Fungicidal (bactericidal) activity in vitro, PDA colony diameter; assay type: cell-based; conditions: 50 mg/kg
# Bipolaria maydis = test: organism not typed; assay type: cell-based; conditions: for Bactericidal activity (%) Bipolaria maydis: 50 mg/kg
# Sclerotinia scleotiorum = test: Fungicidal (bactericidal) activity in vitro, PDA colony diameter; assay type: cell-based; conditions: 50 mg/kg
# Rhizoctonia solani = test: as above; assay type: cell-based; conditions: 50 mg/kg
# Alternaria solani = test: as above; assay type: cell-based; conditions: 50 mg/kg
# [6] = tested on: tobacco mosaic virus (TMV); test: Anti-TMV in vivo therapeutic effect; parameters: species or system tobacco mosaic virus (host Nicotiana tabacum L.cv.Xanthi NN); conditions: for inhibition at 100 µg/mL / inhibition at 500 µg/mL: Tobacco mosaic virus, read-out: Relative inhibition rate (%) In vivo therapy
# potato late blight = test: microbe, parasite or virus in culture; assay type: cell-based
# [7] = tested on: Colletotrichum orbiculare; test: Fungicidal (bactericidal) activity in vitro, PDA colony diameter; assay type: cell-based; conditions: 50 mg/kg
# Fusarium graminearumt = test: microbe, parasite or virus in culture; assay type: cell-based; conditions: for Bactericidal activity (%) Fusarium graminearumt: 50 mg/kg
# Botrytis cinerea = test: Fungicidal (bactericidal) activity in vitro, PDA colony diameter; assay type: cell-based; conditions: 50 mg/kg
# Cercospora arachidicola = test: as above; assay type: cell-based; conditions: 50 mg/kg
# corn borers [8] = conditions: concentration 600 mg/kg
structure (smiles),measurement,setting,value
CC1=NCCc2c1[nH]c1ccccc21 [Harmalan],inhibition of growth at 50 mg/kg,"cucumber fusarium wilt; Fusarium, 96 h",23.1%
same,Armyworm Mortality (%),armyworms,20%
same,anti-TMV activity compared with ningnanmycin,[1],equivalent to the activity of commercial variety ningnanmycin
same,inhibition at 100 µg/mL,[2]; treatment dose 100 μg/mL,35.6%
same,inhibition at 500 µg/mL,[2]; treatment dose 500 μg/mL,60.3%
same,mortality at 600 mg/kg,cotton bollworms,10%
same,inhibition of growth at 50 mg/kg,"Fusarium fujikuroi; Fusarium fujikuroi, 96 h",28.6%
same,inhibition of growth at 50 mg/kg,"Rhizoctonia cereali; Rhizoctonia, 96 h",55.3%
same,mortality at 600 mg/kg,corn borers [3],15%
same,mortality at 10 mg/kg,mosquito larvae,35%
same,inhibition at 50 mg/kg,Macrophoma kawatsukai,2.4%
same,inhibition at 100 µg/mL,[4]; treatment dose 100 μg/mL,32.7%
same,inhibition at 500 µg/mL,[4]; treatment dose 500 μg/mL,62.3%
same,inhibition at 100 µg/mL,[5]; treatment dose 100 μg/mL,30%
same,inhibition at 500 µg/mL,[5]; treatment dose 500 μg/mL,58.6%
same,inhibition of growth at 50 mg/kg,"Phytophthora capsici; Phytophthora capsici, 96 h",0%
same,inhibition at 50 mg/kg,Bipolaria maydis; read-out: Bactericidal activity (%) Bipolaria maydis,27.3%
same,inhibition of growth at 50 mg/kg,"Sclerotinia scleotiorum; Sclerotinia, 96 h",19.6%
same,inhibition of growth at 50 mg/kg,"Rhizoctonia solani; Rhizoctonia solani, 96 h",19.7%
same,inhibition of growth at 50 mg/kg,"Alternaria solani; Alternaria solani, 96 h",26.3%
same,inhibition at 100 µg/mL,[6]; treatment dose 100 μg/mL,34.8%
same,inhibition at 500 µg/mL,[6]; treatment dose 500 μg/mL,55.1%
same,inhibition of growth at 50 mg/kg,"potato late blight; Phytophthora infestans, 96 h, read-out: Bactericidal activity (%) potato late blight",31.8%
same,inhibition of growth at 50 mg/kg,"[7]; Colletotrichum orbiculare, 96 h",25%
same,inhibition of growth at 50 mg/kg,"Fusarium graminearumt; Fusarium, 96 h, read-out: Bactericidal activity (%) Fusarium graminearumt",21.4%
same,inhibition of growth at 50 mg/kg,"Botrytis cinerea; Botrytis cinerea, 96 h",15.2%
same,inhibition of growth at 50 mg/kg,"Cercospora arachidicola; Mycosphaerella arachidis, 96 h",76.9%
"C[C@@H]1N[C@H](C(=O)NNC(=O)C(C)(C)C)Cc2c1[nH]c1ccccc21 [Id-6, (1S, 3S)—N′-tert-valeryl-1-methyl-2,3,4,9-tetrahydropyridino [3,4-b] indol-3-formylhydrazine]",Bactericidal activity (%) Cucumber fusarium wilt,cucumber fusarium wilt,4.5%
same,Armyworm Mortality (%),armyworms,35%
same,Corn borer Mortality (%),corn borers [8],50%
same,anti-TMV activity compared with ningnanmycin,[1],equivalent to the activity of commercial variety ningnanmycin
same,Relative inhibition rate (%) In vivo protection,[2]; treatment dose 100 μg/mL,16.9%
same,Relative inhibition rate (%) In vivo protection,[2]; treatment dose 500 μg/mL,47.5%
same,Cotton bollworm Mortality (%),cotton bollworms,25%
same,Bactericidal activity (%) Fusarium fujikuroi,Fusarium fujikuroi,29.4%
same,Bactericidal activity (%) Rhizoctonia cereali,Rhizoctonia cereali,10.8%
same,Mosquito larvae Mortality (%),mosquito larvae,65%
same,Bactericidal activity (%) Macrophoma kawatsukai,Macrophoma kawatsukai,42.4%
same,Relative inhibition rate (%) In vivo inactivation,[4]; treatment dose 100 μg/mL,12.8%
same,Relative inhibition rate (%) In vivo inactivation,[4]; treatment dose 500 μg/mL,44%
same,Relative inhibition rate (%) In vitro activity,[5]; treatment dose 100 μg/mL,8.9%
same,Relative inhibition rate (%) In vitro activity,[5]; treatment dose 500 μg/mL,45.7%
same,Bactericidal activity (%) Phytophthora capsici,Phytophthora capsici,12.1%
same,Bactericidal activity (%) Bipolaria maydis,Bipolaria maydis,20.0%
same,Bactericidal activity (%) Sclerotinia scleotiorum,Sclerotinia scleotiorum,17.3%
same,Bactericidal activity (%) Rhizoctonia solani,Rhizoctonia solani,5.6%
same,Bactericidal activity (%) Alternaria solani,Alternaria solani,14.3%
same,Relative inhibition rate (%) In vivo therapy,[6]; treatment dose 100 μg/mL,14.2%
same,Relative inhibition rate (%) In vivo therapy,[6]; treatment dose 500 μg/mL,42.1%
same,Bactericidal activity (%) potato late blight,potato late blight,26.1%
same,Bactericidal activity (%) Colletotrichum orbiculare,[7],24.0%
same,Bactericidal activity (%) Fusarium graminearumt,Fusarium graminearumt,30.8%
same,Bactericidal activity (%) Botrytis cinerea,Botrytis cinerea,50.0%
same,Bactericidal activity (%) Cercospora arachidicola,Cercospora arachidicola,9.1%
"C[C@@H]1N[C@H](C(=O)NNC(=O)C2CCCC2)Cc2c1[nH]c1ccccc21 [Id-7, (1S, 3S)—N′-(cyclopentyl formyl)-1-methyl-2,3,4,9-tetrahydropyridino [3,4-b] indol-3-formylhydrazine]",Bactericidal activity (%) Cucumber fusarium wilt,cucumber fusarium wilt,9.1%
same,Armyworm Mortality (%),armyworms,40%
same,Corn borer Mortality (%),corn borers [8],40%
same,anti-TMV activity compared with ningnanmycin,[1],equivalent to the activity of commercial variety ningnanmycin
same,Relative inhibition rate (%) In vivo protection,[2]; treatment dose 100 μg/mL,26.6%
same,Relative inhibition rate (%) In vivo protection,[2]; treatment dose 500 μg/mL,53.9%
same,Cotton bollworm Mortality (%),cotton bollworms,30%
same,Bactericidal activity (%) Fusarium fujikuroi,Fusarium fujikuroi,29.4%
same,Bactericidal activity (%) Rhizoctonia cereali,Rhizoctonia cereali,29.7%
same,Mosquito larvae Mortality (%),mosquito larvae,80%
same,Bactericidal activity (%) Macrophoma kawatsukai,Macrophoma kawatsukai,33.3%
same,Relative inhibition rate (%) In vivo inactivation,[4]; treatment dose 100 μg/mL,20.3%
same,Relative inhibition rate (%) In vivo inactivation,[4]; treatment dose 500 μg/mL,42.4%
same,Relative inhibition rate (%) In vitro activity,[5]; treatment dose 100 μg/mL,22.2%
same,Relative inhibition rate (%) In vitro activity,[5]; treatment dose 500 μg/mL,47.2%
same,Bactericidal activity (%) Phytophthora capsici,Phytophthora capsici,15.2%
same,Bactericidal activity (%) Bipolaria maydis,Bipolaria maydis,28.0%
same,Bactericidal activity (%) Sclerotinia scleotiorum,Sclerotinia scleotiorum,7.7%
same,Bactericidal activity (%) Rhizoctonia solani,Rhizoctonia solani,1.4%
same,Bactericidal activity (%) Alternaria solani,Alternaria solani,9.5%
same,Relative inhibition rate (%) In vivo therapy,[6]; treatment dose 100 μg/mL,18.6%
same,Relative inhibition rate (%) In vivo therapy,[6]; treatment dose 500 μg/mL,51.4%
same,Bactericidal activity (%) potato late blight,potato late blight,21.7%
same,Bactericidal activity (%) Colletotrichum orbiculare,[7],16.0%
same,Bactericidal activity (%) Fusarium graminearumt,Fusarium graminearumt,15.4%
same,Bactericidal activity (%) Botrytis cinerea,Botrytis cinerea,50.0%
same,Bactericidal activity (%) Cercospora arachidicola,Cercospora arachidicola,9.1%
CC1NCCc2c1[nH]c1ccccc21 (stereo not shown) [Tetrahydroharmane],Armyworm Mortality (%),armyworms,15%
same,anti-TMV activity compared with ningnanmycin,[1],equivalent to the activity of commercial variety ningnanmycin
same,inhibition at 100 µg/mL,[2]; treatment dose 100 μg/mL,24.6%
same,inhibition at 500 µg/mL,[2]; treatment dose 500 μg/mL,59.5%
same,mortality at 600 mg/kg,cotton bollworms,15%
same,mortality at 600 mg/kg,corn borers [3],10%
same,mortality at 10 mg/kg,mosquito larvae,30%
same,inhibition at 100 µg/mL,[4]; treatment dose 100 μg/mL,23.5%
same,inhibition at 500 µg/mL,[4]; treatment dose 500 μg/mL,64.2%
same,inhibition at 100 µg/mL,[5]; treatment dose 100 μg/mL,28.4%
same,inhibition at 500 µg/mL,[5]; treatment dose 500 μg/mL,63.7%
same,inhibition at 100 µg/mL,[6]; treatment dose 100 μg/mL,20.4%
same,inhibition at 500 µg/mL,[6]; treatment dose 500 μg/mL,57.2%
